Measurements taken from ChEMBL document CHEMBL1155710, “New bioactive sulfated metabolites from the Mediterranean tunicate Sidnyum turbinatum” (J Nat Prod, 2001).

Test system: WEHI-164
Experiment: Antiproliferative activity against mouse WEHI164 cells assessed as cell viability after 96 hrs by MTT assay
Assay type: functional, cell-based
Settings: WEHI-164, 96 h

Row | Structure (SMILES) | IC50
1 | CC(C)CCCC(CCCC(C)CCC[C@H](C)COS(=O)(=O)[O-])COS(=O)(=O)[O-].[Na+].[Na+] (stereo not given in full) | 230 µg/mL
2 | CC(C)CCCC(CCCC(C)CCCC(C)CCOS(=O)(=O)[O-])COS(=O)(=O)[O-].[Na+].[Na+] (stereo not given) | 300 µg/mL
3 | CCCCCCCCCCCCCCCCCOS(=O)(=O)[O-].[Na+] [SODIUM HEPTADECYL SULFATE] | 400 µg/mL
4 | CCCCCCOS(=O)(=O)[O-].[Na+] [SODIUM HEXYL SULFATE] | 150 µg/mL
5 | CCCCCCCCCCCCCCCCCCOS(=O)(=O)[O-].[Na+] [SODIUM OCTADECYL SULFATE] | 410 µg/mL
